target: T1, human V1a receptor (Homo sapiens, UniProt P37288); assay: human V1a receptor binding (3H-Vasopressin SPA, membranes of transfected HEK293 cells); details: HEK293 cell membranes, Ki by Cheng-Prussoff equation, read-out: pKi hV1a (converted)
T1 construct: expressed in transfected cells; host or cells: HEK293 cells, transiently transfected; cell membranes
Protocol: The human V1a receptor was cloned by RT-PCR from total human liver RNA. The coding sequence was subcloned in an expression vector after sequencing to confirm the identity of the amplified sequence. […] Cell membranes were prepared from HEK293 cells transiently transfected with the expression vector and grown in 20 liter fermenters with the following protocol.
50 g of cells are resuspended in 30 ml freshly prepared ice cold Lysis buffer (50 mM HEPES, 1 mM EDTA, 10 mM MgCl2 adjusted to pH=7.4+complete cocktail of protease inhibitor (Roche Diagnostics)). Homogenized with Polytron for 1 min and sonicated on ice for 2×2 minutes at 80% intensity (Vibracell sonicator). The preparation is centrifuged 20 min at 500 g at 4° C., the pellet is discarded and the supernatant centrifuged 1 hour at 43′000 g at 4° C. (19,000 rpm). The pellet is resuspended in 12.5 ml Lysis buffer+12.5 ml Sucrose 20% and homogenized using a Polytron for 1-2 min. The protein concentration is determined by the Bradford method and aliquots are stored at −80° C. until use. For binding studies 60 mg Yttrium silicate SPA beads (Amersham) are mixed with an aliquot of membrane in binding buffer (50 mM Tris, 120 mM NaCl, 5 mM KCl, 2 mM CaCl2, 10 mM MgCl2) for 15 minutes with mixing. 50 μl of bead/membrane mixture is then added to each well of a 96 well plate, followed by 50 μl of 4 nM 3H-Vasopressin (American Radiolabeled Chemicals). For total binding measurement 100 μl of binding buffer are added to the respective wells, for non-specific binding 100 μl of […] cold vasopressin and for compound testing 100 μl of a serial dilution of each compound in 2% DMSO. The plate is incubated 1 h at room temperature, centrifuged 1 min at 1000 g and counted on a Packard Top-Count. Non-specific binding counts are subtracted from each well and data is normalized to the maximum specific binding set at 100%. To calculate an IC 50 the curve is fitted using a non-linear regression model (XLfit) and the Ki is calculated using the Cheng-Prussoff equation.

T1 sequence (P37288 whole entry): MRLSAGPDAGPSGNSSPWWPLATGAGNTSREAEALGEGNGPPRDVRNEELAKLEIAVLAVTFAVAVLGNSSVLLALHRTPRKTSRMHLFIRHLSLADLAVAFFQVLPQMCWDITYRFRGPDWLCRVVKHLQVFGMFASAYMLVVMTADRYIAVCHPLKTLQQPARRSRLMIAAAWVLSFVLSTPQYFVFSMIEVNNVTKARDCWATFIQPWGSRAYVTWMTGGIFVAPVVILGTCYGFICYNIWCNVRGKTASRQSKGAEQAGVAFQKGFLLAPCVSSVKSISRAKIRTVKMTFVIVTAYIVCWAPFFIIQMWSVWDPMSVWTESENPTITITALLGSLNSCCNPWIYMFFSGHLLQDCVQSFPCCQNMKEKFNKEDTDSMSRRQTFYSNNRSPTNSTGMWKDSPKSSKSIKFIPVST

Row | SMILES | Ki
1 | Fc1cccnc1[C@H]1CC[C@H](c2nnc3n2-c2ccc(Cl)cc2COC3)CC1 [Example 1] | 2.4 nM
2 | Clc1ccc2c(c1)COCc1nnc([C@H]3CC[C@H](c4noc5ccccc54)CC3)n1-2 [Example 2, 1-(4-Benzo[d]isoxazol-3-yl-cyclohexyl)-8-chloro-4H,6H-5-oxa-2,3,10b-triaza-benzo[e]azulene] | 7.41 nM
3 | Clc1ccc2c(c1)COCc1nnc([C@H]3CC[C@H](c4nsc5ccccc54)CC3)n1-2 [Example 3, 1-(4-Benzo[d]isothiazol-3-yl-cyclohexyl)-8-chloro-4H,6H-5-oxa-2,3,10b-triaza-benzo[e]azulene] | 0.288 nM
4 | Cc1cc([C@H]2CC[C@H](c3nnc4n3-c3ccc(Cl)cc3COC4)CC2)no1 [Example 4, 8-Chloro-1-[4-(5-methyl-isoxazol-3-yl)-cyclohexyl]-4H,6H-5-oxa-2,3,10b-triaza-benzo[e]azulene] | 3.98 nM
5 | Clc1ccc2c(c1)COCc1nnc([C@H]3CC[C@H](c4onc5c4CCCC5)CC3)n1-2 [Example 5, 8-Chloro-1-[4-(4,5,6,7-tetrahydro-benzo[c]isoxazol-3-yl)-cyclohexyl]-4H,6H-5-oxa-2,3,10b-triaza-benzo[e]azulene] | 15.5 nM
6 | Clc1ccc2c(c1)COCc1nnc([C@H]3CC[C@H](c4n[nH]c5c4CCCC5)CC3)n1-2 [Example 6, 8-Chloro-1-[4-(4,5,6,7-tetrahydro-1H-indazol-3-yl)-cyclohexyl]-4H,6H-5-oxa-2,3,10b-triaza-benzo[e]azulene] | 4.9 nM
7 | Cc1nc([C@H]2CC[C@H](c3nnc4n3-c3ccc(Cl)cc3COC4)CC2)no1 [Example 7, 8-Chloro-1-[4-(5-methyl-[1,2,4]oxadiazol-3-yl)-cyclohexyl]-4H,6H-5-oxa-2,3,10b-triaza-benzo[e]azulene] | 32.4 nM
8 | FC(F)(C1CCCC1)[C@H]1CC[C@H](c2nnc3n2-c2ccc(Cl)cc2COC3)CC1 [Example 8, 8-Chloro-1-[4-(cyclopentyl-difluoro-methyl)-cyclohexyl]-4H,6H-5-oxa-2,3,10b-triaza-benzo[e]azulene] | 2.4 nM
9 | CC(C)C[C@H]1CC[C@H](c2nnc3n2-c2ccc(Cl)cc2COC3)CC1 [Example 9, 8-Chloro-1-(4-isobutyl-cyclohexyl)-4H,6H-oxa-2,3,10b-triaza-benzo[e]azulene] | 25.7 nM
